Measurements: US7678365B2, “Disinfecting oral rinse compositions and process for using the same” (priority 2001, dated 2010)

Tests used:
E. coli = assay: AOAC Germicidal Test procedure; format: cell-based; settings: for E. coli organisms destroyed/killed: initial inoculum of E. coli 7.63 logs10/ml, equimolar amounts of the unionized acid form
Description: […]. […] […].

[1] = Acid ionization constants and lactic acid/lactate speciation; format: physicochemical
Description: […]. When citric acid is used as the supplemental acid, less total acid is required to achieve a desired pH than, say, when using malic acid, which is half the strength of citric (Ka1 of citric is 8.2×10^−4 vs. 3.9×10^−4 for malic acid). Thus a smaller amount of lactic acid is used when it represents, say, 10% of a lactic/citric combination than a lactic/malic combination; […]. In certain embodiments, the metal lactate in these compositions is an alkali, an alkaline earth lactate, or a heavier metal lactate. […]. Useful alkaline earth metal lactates include magnesium and calcium lactate. Available heavier metal lactates are ferrous and aluminum lactates, although the cation flavor is intrusive. […]. At pH 2.5 96% of the two lactic species exist as lactic acid, which drops to 70% at pH 3.5. […].
The acid and chlorite solutions had first been equilibrated at 37° C., to simulate body temperature. The solution pHs, in both cases, were 3.0. After 10 minutes, the solution Absorbance values were measured at a wavelength of 360 nm in a spectrophotometer, and the concentration of chlorine dioxide (ClO2) then calculated, using the molar extinction coefficient of 1,242 liter/mole.cm. […]

Row | SMILES | E. coli organisms destroyed/killed (E. coli) | residual E. coli organisms per ml after disinfection, malic acid-treated relative to lactic acid-treated suspension (E. coli; malic acid vs lactic acid) | fraction of the two lactic species existing as lactic acid ([1]; pH 2.5) | fraction of the two lactic species existing as lactic acid ([1]; pH 3.5) | fraction of the two lactic species existing as lactic acid ([1]; pH 4.0)
1 | O=C(O)CC(O)C(=O)O (stereo not drawn) [malic acid] | 1.45 logs10/ml | ~1500 times |  |  | 
2 | CC(O)C(=O)O (stereo not drawn) [lactic acid] | 4.15 logs10/ml |  | 96% | 70% | 42%
